The values below come from PubChem BioAssay AID330 (DTP/NCI, 2004).

Several values for one entry are separate records, joined by “and”; a condition that tells them apart may be missing. Equal values may be shown once. Toxic doses and inconclusive results are not listed.

This assay has as its system P388 leukemia ip, CD2F1 mice, survival T/C. The assay is described as follows: NCI In Vivo Anticancer Drug Screen. Data for tumor model P388 Leukemia (intraperitoneal) in CD2F1 (CDF1) mice. The note with it: endpoint: median survival time, higher = longer survival. Summed up: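 Mice carrying the transplanted tumor received test compound or vehicle. Survival was recorded in each group, and the value is the treated-group measurement divided by that of the vehicle-treated control group.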

The mark [1] stands for this setting: dose: 6.25 mg/kg/injection, schedule: Q01DX009 (ip), vehicle: saline.
The mark [2] stands for this setting: dose: 25.0 mg/kg/injection, schedule: Q01DX009 (ip), vehicle: saline.
Where [3] appears, read: dose: 25.0 mg/kg/injection, schedule: Q01DX005 (ip), vehicle: saline with Tween-80.
The mark [4] stands for this setting: dose: 50.0 mg/kg/injection, schedule: Q01DX005 (ip), vehicle: saline with Tween-80.
Where [5] appears, read: dose: 200.0 mg/kg/injection, schedule: Q01DX005 (ip), vehicle: saline with Tween-80.
Setting [6] is: dose: 100.0 mg/kg/injection, schedule: Q01DX005 (ip), vehicle: saline with Tween-80.
[7] abbreviates: dose: 60.0 mg/kg/injection, schedule: Q01DX005 (ip), vehicle: saline with Tween-80.
Where [8] appears, read: dose: 120.0 mg/kg/injection, schedule: Q01DX005 (ip), vehicle: saline with Tween-80.
Setting [9] is: dose: 240.0 mg/kg/injection, schedule: Q01DX005 (ip), vehicle: saline with Tween-80.
Where [10] appears, read: dose: 60.0 mg/kg/injection, schedule: Q01DX005 (ip), vehicle: Klucel (hydroxypropylcellulose) (HPC).
Setting [11] is: dose: 120.0 mg/kg/injection, schedule: Q01DX005 (ip), vehicle: Klucel (hydroxypropylcellulose) (HPC).
Where [12] appears, read: dose: 240.0 mg/kg/injection, schedule: Q01DX005 (ip), vehicle: Klucel (hydroxypropylcellulose) (HPC).

Consider `O=[N+]([O-])c1cccc2c[n+](Cc3ccc(Br)cc3)ccc12`, for which the T/C by setting is: under setting [1], 107 % of control; (dose: 12.5 mg/kg/injection, schedule: Q01DX009 (ip), vehicle: saline) 117 % of control; under setting [2], 118 % of control.

Turning to `C[N+](C)(C)CCc1ccc2ccccc2c1`, the T/C was 96 % of control (dose: 25.0 mg/kg/injection, schedule: Q04DX002 (ip), vehicle: saline + alcohol); 92 % of control (dose: 50.0 mg/kg/injection, schedule: Q04DX002 (ip), vehicle: saline + alcohol); 106 % of control and 108 % of control (dose: 100.0 mg/kg/injection, schedule: Q04DX002 (ip), vehicle: saline + alcohol).

Regarding `S=c1[nH]c(=S)c2[nH]c(=S)[nH]c2[nH]1`, the T/C (dose: 12.5 mg/kg/injection, schedule: Q01DX005 (ip), vehicle: saline with Tween-80) was 92 % of control; the T/C under setting [3] is 96 % of control; the T/C under setting [4] was 90 % of control and 95 % of control; the T/C under setting [5] was 89 % of control.

On to `CCOC(=O)/C=C(/C)SC1=CC(=O)C=CC1=O`, for which the T/C under setting [4] is 92 % of control, the T/C under setting [6] was 92 % of control and the T/C under setting [5] is 100 % of control.

For the molecule `CN(C)c1ccc(/C=N/NC(=O)C(O)(c2ccccc2)c2ccccc2)cc1`, the T/C reads like this: under setting [7], 102 % of control; under setting [8], 102 % of control; under setting [9], 96 % of control.

Turning to `COc1cc2c3c(c1)/C(=N\Nc1ccccc1)CCN3CCC2`, under “dose: 3.12 mg/kg/injection, schedule: Q01DX009 (ip), vehicle: DMSO”, the T/C is 99 % of control.

On to `COc1ccc(CSC(=S)Nc2ccc(F)c(F)c2)cc1`, for which the T/C is 108 % of control (dose: 50.0 mg/kg/injection, schedule: Q01DX009 (ip), vehicle: suspension in saline); 106 % of control (dose: 100.0 mg/kg/injection, schedule: Q01DX009 (ip), vehicle: suspension in saline); 99 % of control (dose: 200.0 mg/kg/injection, schedule: Q01DX009 (ip), vehicle: suspension in saline).

As to `Cc1cccc(C(=O)O)n1`, the T/C is 104 % of control (dose: 100.0 mg/kg/injection, schedule: Q04DX003 (ip), vehicle: saline); 100 % of control (dose: 200.0 mg/kg/injection, schedule: Q04DX003 (ip), vehicle: saline); 109 % of control (dose: 400.0 mg/kg/injection, schedule: Q04DX003 (ip), vehicle: saline).

Regarding `C/C=C(\C)C(=O)OC1C(C)=C2C(C1OC(=O)CCCCC)C(C)(OC(C)=O)CC(OC(=O)CCC)C1(O)C2OC(=O)C1(C)O` (centres undefined), the T/C is, setting by setting: (dose: 0.25 mg/kg/injection, schedule: Q01DX005 (ip), vehicle: Klucel (hydroxypropylcellulose) (HPC)) 105 % of control; (dose: 0.5 mg/kg/injection, schedule: Q01DX005 (ip), vehicle: Klucel (hydroxypropylcellulose) (HPC)) 99 % of control and 123 % of control; (dose: 1.0 mg/kg/injection, schedule: Q01DX005 (ip), vehicle: Klucel (hydroxypropylcellulose) (HPC)) 105 % of control; (dose: 2.0 mg/kg/injection, schedule: Q01DX005 (ip), vehicle: Klucel (hydroxypropylcellulose) (HPC)) 106 % of control.

In the case of `Cc1cc2c(c(=O)o1)C1(C)CC(C)(O2)c2c(cc(C)oc2=O)O1`, the T/C is 99 % of control under setting [7], 95 % of control under setting [8] and 89 % of control under setting [9].

On to `CCOC(=O)c1ccc(NC(=O)Nc2nn[nH]n2)cc1`, for which the T/C was 105 % of control (dose: 25.0 mg/kg/injection, schedule: Q01DX009 (ip), vehicle: distilled water + Tween-80); 115 % of control (dose: 50.0 mg/kg/injection, schedule: Q01DX009 (ip), vehicle: distilled water + Tween-80); 108 % of control (dose: 100.0 mg/kg/injection, schedule: Q01DX009 (ip), vehicle: distilled water + Tween-80); 100 % of control (dose: 200.0 mg/kg/injection, schedule: Q01DX009 (ip), vehicle: distilled water + Tween-80); 108 % of control (dose: 400.0 mg/kg/injection, schedule: Q01DX009 (ip), vehicle: distilled water + Tween-80).

Take `Cc1cc(=O)[nH]c2c1CCCC2`: the T/C was 107 % of control (dose: 100.0 mg/kg/injection, schedule: Q04DX003 (ip), vehicle: saline sonified); 96 % of control (dose: 200.0 mg/kg/injection, schedule: Q04DX003 (ip), vehicle: saline sonified); 92 % of control (dose: 400.0 mg/kg/injection, schedule: Q04DX003 (ip), vehicle: saline sonified).

As to `Fc1ccc(C(Nc2nncs2)Nc2nncs2)c(F)c1`, the T/C was 105 % of control under setting [7], 96 % of control under setting [8] and 107 % of control under setting [9].

As for `[Cu+2].[NH-]C(CO)C(=O)O.[NH-]C(Cc1cnc[nH]1)C(=O)O` (centres undefined), the T/C was 97 % of control under setting [1] and 114 % of control under setting [2].

Consider `CC1SC2(C(=O)Nc3ccc(Cl)cc32)N(c2ccc(Cl)cc2)C1=O` (centres undefined), for which the T/C runs as follows: under setting [10], 105 % of control; under setting [11], 105 % of control; under setting [12], 108 % of control.

With `COc1cc(C2=N/C(=C\c3ccccc3O)C(=O)O2)cc(OC)c1OC`, the T/C under setting [2] was 94 % of control; the T/C (dose: 50.0 mg/kg/injection, schedule: Q01DX009 (ip), vehicle: saline) is 94 % of control; the T/C (dose: 100.0 mg/kg/injection, schedule: Q01DX009 (ip), vehicle: saline) was 91 % of control.

Consider `c1ccc2c(c1)Cc1c-2nc2ccccc2c1N1CCOCC1`, for which the T/C by setting is: under setting [3], 100 % of control; under setting [4], 106 % of control and 93 % of control; under setting [6], 103 % of control and 112 % of control; under setting [5], 119 % of control.

Take `C#CCn1cnc2c(=S)nc[nH]c21`: the T/C (dose: 180.0 mg/kg/injection, schedule: Q01DX009 (ip), vehicle: saline with Tween-80) was 87 % of control.

For `O=C(O)C(c1ccccc1)c1cccc(C(C(=O)O)c2ccccc2)n1` (centres undefined), the T/C runs as follows: under setting [7], 105 % of control; under setting [8], 100 % of control; under setting [9], 102 % of control.

For `CCCSC(SCCC)C1OC(c2ccccc2)OC2COC(c3ccccc3)OC21` (centres undefined), the T/C by setting is: (dose: 50.0 mg/kg/injection, schedule: Q01DX005 (ip), vehicle: Klucel + Tween-80) 90 % of control; (dose: 100.0 mg/kg/injection, schedule: Q01DX005 (ip), vehicle: Klucel + Tween-80) 87 % of control; (dose: 200.0 mg/kg/injection, schedule: Q01DX005 (ip), vehicle: Klucel + Tween-80) 87 % of control.

For `Cc1ccc2nc(NC(=O)N(CCCl)N=O)sc2c1`, the T/C (dose: 400.0 mg/kg/injection, schedule: Q04DX003 (ip), vehicle: saline with Tween-80) is 168 % of control.

Turning to `O=C1C(C2(O)C(=O)Nc3ccccc32)CCCC1C1(O)C(=O)Nc2ccccc21` (centres undefined), the T/C by setting is: under setting [10], 90 % of control; under setting [11], 87 % of control; under setting [12], 89 % of control.
